# From patent publication US6291247A, “Methods of screening for factors that disrupt neurotrophin conformation and reduce neurotrophin biological activity” (priority 1996, dated 2001)
# Bridges are numbered along the chain shown (N, C = ends). Where no end group is shown, it is not given here.
# Tests used:
# PC12 cells [1] = assay: Toxicity to PC12 cells; type: cell-based, rat
# PC12 cells [2] = assay: Toxicity to PC12 cells; type: cell-based, rat; details: 100 μM
# Description: Effects of divalent ions on NGF mediated survival and toxicity was evaluated using a colorimetric assay for the lysosomal enzyme acid phosphatase to determine cell number (Connolly, D. T., Knight, M. B., Harakas, N. K, Wittwer, A. J. & Feder, J. Determination of the number of endothelial cells in culture using an acid phosphatase assay. Anal. Biochem. 152, 136-140 (1986); Ueda, Y., Walsh, E., Nakanishi H. & Yoshida, K. A. colorometric assay method for the evaluation of neurotrophic activity in vitro. Neurosci. Lett. 165, 203-207 (1994)). […] To evaluate toxicity, the cells were seeded and maintained without NGF in RPMI with 10% heat inactivated donor horse serum and 5% fetal calf serum in the presence of additives. Loss in viable cell number was determined and expressed as a percent of control. NGF rescues PC12 cells from cell death in serum-free medium(Greene, L. A. Nerve growth factor prevents the death and stimulates neuronal differentiation of clonal PC12 pheochromocytoma cells in serum-free medium. J. Cell Biol. 78, 747-755 (1978)). NGF-dependent survival was assessed by harvesting PC12 cells in balanced salt solution followed with washing by 4 cycles of suspension and centrifugation in serum-free RPMI prior to seeding in 96 well plates. After incubation with additives, medium was removed from the wells and cells washed once with 200 μl PBS. Buffer containing 0.1M sodium acetate pH 5.5, 0.1% Triton X-100 and 10 mM p-nitrophenyl phosphate (Sigma 104 phosphatase substrate) was added to each well (100 μl). Plates were incubated at 37° C. for 3 hours. The reaction was stopped by the addition of 10 μl/well of 1N sodium hydroxide and the color development measured at 405 nm using a microplate reader. The relationship between cell number and enzyme activity was linear over the range 1000 to 15,000 cells.
# To explore the ability of other transition metals to influence the biological activities of NGF, a series of cations known to mimic in certain respects the binding of zinc to proteins were tested. […] For this reason these ions were not tested in NGF- dependant growth phenomena. […] As these studies appeared to indicate potentially complex results upon metal ions binding to NGF, a receptor crosslinking system where specific receptor types could be identified was utilized.
# [3] = test system: dorsal root ganglion (DRG) neurons; assay: NGF-dependent neurite growth of ED8 chick DRG neurons (FIG. 6, Terasaki plates); type: cell-based
# Description: FIG. 6 is a graph showing the ability of R11 to inhibit the activity of NGF in vitro using a biological assay system. […] Dissociated cells enriched for sensory neurons were prepared from embryonic day 8 (ED8) chick dorsal root ganglion (DRG) as described (Sutter et al., J. Biol. Chem. 254: 5972-5982 (1979)). Neurons were seed into wells of Terasaki plates treated sequentially with poly-D-lysine and laminin at a density of 800-1000 cells/well in "synthetic" Dulbecco's modified Eagle medium (Bottenstein et al., Proc. Natl. Acad. Sci. USA 76: 514-517 (1979)) containing 1% fetal calf serum and NGF at […]. The cells were incubated with the additives indicated at 37° C. in a 5% CO2 atmosphere At 18-20 hours, the cells were fixed in 4% formaldehyde in phosphate-buffered saline and scored for neurite growth. The cells on the entire lower horizontal surface of the well were counted using an inverted microscope fitted with phase contrast optics. A neurite was scored if its caliber from origin to terminal was constant and its length was equal to or greater than 1.5 cell body diameters. Neurite growth was corrected for background (no NGF) growth in the presence and absence of peptide.
# Such a profile is not typical of a competitive inhibitor. That is, a different dose response profile would be expected if R11 were simply competing with NGF for binding to a receptor. Neither of the less constrained synthetic Intermediates of R11, i.e., R11 (linear) or R11 (monocyclic), was as effective in blocking NGF-dependent neurite growth concentrations up to 200 μM.
# p75 = assay: Affinity cross-linking of 125I-NGF to p75 on PC12 cells; type: binding, rat; details: for Inhibition of p75 Interaction: 200 μM peptide, 0.1 nM 125I-NGF, PC12 cells
# Description: The ability of the peptides under study to interfere with binding of NGF to NGF receptors was evaluated by analysis of inhibition of the chemical cross-linking of ^251 I-NGF to the common neurotrophin receptor p75 (Chao, J. Neurobiol. 25:1373-1385 (1994)) and the specific NGF receptor TrkA (Barbacid, J. Neurobiol. 25: 1386-1403 (1994)). Immunoprecipitation and polyacrylamide gel electrphoresis of cross linked receptors allowed identification of both receptors, as shown in FIG. 7A. […] At concentrations of 200 μM, neither R11(l) nor R11(m) were able to inhibit greater than 50% of the observed ^125 I-labelling.
# The ability of the peptides derived from the 68-58/108-110 region of NGF to antagonize NGF interaction with the p75 and TrkA receptors was determined The peptides tested were bicyclic (BC) 68-58/108-110, cyclic (C) 68-58/108-110, and linear (L) 68-58/108-110, each of which are illustrated in FIGS. 2 and 5D
# Receptor cross-linking studies were performed on PC12 rat pheochromocytoma cells (ATCC CRL 1721; Greene et al., Proc. Natl. Acad. Sci. USA 73: 2424-2432 (1976)) which were maintained in RPMI1640 (Gibco) supplemented with 10% fetal calf serum (Gibco). Cells were harvested by incubation and trituration in Ca^2+ and Mg^2+ free Gey's balanced salt solution, washed and suspended in 10 mM HEPES buffer (pH 7.35) containing 125 mM NaCl, 4.8 mM KCl, 1.3 mM CaCl2, […], 1.2 mM KH2 PO4, 1 g/L sucrose and 1 g/L bovine serum albumin (HEPES Krebs Ringer buffer, HKR buffer) at 10^6 cells/mL. Subsequent procedures were carried out at 4° C. unless otherwise noted.
# For receptor crosslinking, ^125 I-NGF was prepared by the method of Sutter et al. (J. Biol. Chem. 254: 5972-5982 (1979)) from NGF isolated from mouse submaxillary gland (as described in Mobley et al., Biochemistry 15:1543 (1976)) obtained from Cedarlane.
# […] Control PC12 cells were incubated in HKR buffer in the presence of ^125 I-NGF only (no NGF peptide).
# Receptor proteins were cross-linked with either 0.4 mM bis(sulfosuccinimidyl)suberate (BS^3, Pierce) for TrkA, or a combination of 2 mM […] (EDC) and 2 mM N-hydroxysulfosuccinimide (S-NHS) for p75^NTR as indicated. All cross-linking agents (from Pierce) were dissolved in water and added in 20 μL aliquots and the reaction allowed to proceed for 30 min at 25° C. On completion of the cross-linking reaction, the cells were washed three times in HKR buffer with BSA at 4° C. to remove excess free radiolabelled ligand and reagents. The cells were solubilized in 100 μL SDS sample buffer Samples were separated on a modified Laemmli discontinues acrylamide gel system (Laemmli, Nature 227:680 (1970)) using 4% SDS-PAGE stacking gel and a gradient urea polyacrylamide separating gel ranging from 4.5% acrylamide/18% urea to 7.5% acrylamide/48% urea. The gels were fixed and processed for autoradiography using -70° C. exposure with Kodak XAR film and manual processing (FIG. 7B).
# For positive receptor identification, immunoprecipitation studies were performed. Samples of 10^7 cells in 1 mL HKR buffer were cross-linked under the conditions described above, washed in HKR buffer and solubilized in non-denaturing lysis buffer (1% NP40, 10% glycerol, 1 mM phenylmethylsulfonylfluoride, 10 μg/mL leupeptin and 0.5 mM o-vanadate in Tris-buffered saline) (Kaplan et al., Nature 350:1 158-160 (1991)). The solutions were clarified by centrifugation and immunoprecipitated with either mAb 192 (monoclonal antibody for p75; Cedarlane) or rabbit anti-TrkA, which had been raised against a COOH-terminal peptide of TrkA. The ^125 I-NGF cross-linked receptor-antibody complexes were isolated using 50 μL of a 50% solution of rabbit anti-mouse agarose (Sigma; for mAb 192) or protein A-Sepharose (Pharmcia; for anti-Trk) equilibrated in lysis buffer. Immunoprecipitates were washed three times in lysis buffer and the pellets denatured in SDS reducing sample buffer. […]
# NGF = biological target: T1, NGF (Mus musculus, UniProt P01139); assay: Cross-linking of NGF protomers in a cell-free system (Example 6); type: biochemical; details: R11 analogues, concentration not given
# T1 construct: homodimer
# T1 sequence (P01139 122-239): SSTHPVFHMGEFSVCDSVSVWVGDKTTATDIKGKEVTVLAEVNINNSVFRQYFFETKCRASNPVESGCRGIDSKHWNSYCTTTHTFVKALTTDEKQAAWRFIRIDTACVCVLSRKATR
compound,measurement,setting,value
[Hg+2] [Hg^2+],Toxicity to PC12 cells in serum-free conditions,PC12 cells [1],toxic to PC12 cells
same,Toxicity (PC12 cell viability),PC12 cells [2],3 ± 0.8 % control
[Cd+2] [Cd^2+],Toxicity to PC12 cells in serum-free conditions,PC12 cells [1],toxic to PC12 cells
same,Toxicity (PC12 cell viability),PC12 cells [2],63 ± 10 % control
"NH2 -Cys-Gly-Ser-Glu-Val-Pro-Asn-Ser-Ala-Arg-Cys-Cys-Val-Cys-OH (H-CGSEVPNSARCCVC-OH; not fully specified; printed as NH2 -Cys-Gly-Ser-Glu-Val-Pro-Asn-Ser-Ala-Arg-Cys-Cys-Val-Cys-OH; cysteine pairing not given here) [R11(l), linear peptide R11]",Blocking of NGF-dependent neurite growth,[3]; concentrations up to 200 μM,Neither of the less constrained intermediates R11(l) or R11 (m) were effective
same,Inhibition of the observed 125I-labelling (p75),p75; 200 μM,≤ 50%
same,Inhibition of p75 Interaction,p75; listed as L,no inhibition
[Co+2] [Co^2+],Toxicity to PC12 cells in serum-free conditions,PC12 cells [1],toxic to PC12 cells
same,Toxicity (PC12 cell viability),PC12 cells [2],52 ± 14 % control
"SR11: identical amino acid composition to R11 except that the eleven N-terminal residues have been inverted to the naturally occurring NGF sequence 58-68 (CRASNPVESGCCVC; disulfide 1-14, 11-12)",Cross-linking of NGF promoters (NGF dimer disruption assay),NGF,equally etude in reducing crosslinking of NGF promoters as R11
"BR11: same amino acid composition as R11, except that the CVC domain has been moved to appear at the N-terminus (CVCCRASNPVESGC; disulfide 1-14, 3-4)",Cross-linking of NGF promoters (NGF dimer disruption assay),NGF,not effective in influencing the crosslinking of NGF promoters
same,Inhibition of NGF-mediated neurite growth,[3]; concentrations of 500 μk (so in the source),did not inhibit NGF-mediated neurite growth
"NH2 -Cys-Gly-Ser-Glu-Val-Pro-Asn-Ser-Ala-Arg-Cys-Cys-Val-Cys-OH (H-CGSEVPNSARCCVC-OH; not fully specified; printed as NH2 -Cys-Gly-Ser-Glu-Val-Pro-Asn-Ser-Ala-Arg-Cys-Cys-Val-Cys-OH; cysteine pairing not given here) [R11(m), monocyclic R11 with a single disulfide bond]",Inhibition of p75 Interaction,p75; listed as C,no inhibition
